{"source": "ChEMBL document CHEMBL1201862", "about": "“PubChem BioAssay data set” (2004)", "assay_in_all_cases": "NCI anticancer screen, dose series, 48 h", "key": {"[1]": {"system": "LXFL 529"}, "[2]": {"system": "MOLT-4"}, "[3]": {"system": "SNB-78"}, "[4]": {"system": "HCT-15"}, "[5]": {"system": "NCI-H522"}, "[6]": {"system": "DMS-114"}, "[7]": {"system": "SK-OV-3"}, "[8]": {"system": "KM12"}, "[9]": {"system": "M19-MEL"}, "[10]": {"system": "SW-620"}, "[11]": {"system": "OVCAR-8"}, "[12]": {"system": "SK-MEL-5"}, "[13]": {"system": "COLO 205"}, "[14]": {"system": "UACC-62"}, "[15]": {"system": "M14"}, "[16]": {"system": "LOX IMVI"}, "[17]": {"system": "SF-295"}, "[18]": {"system": "HCT-116"}, "[19]": {"system": "RXF 393"}, "[20]": {"system": "HOP-92"}, "[21]": {"system": "K562"}, "[22]": {"system": "ACHN"}, "[23]": {"system": "DMS-273"}, "[24]": {"system": "HT-29"}, "[25]": {"system": "OVCAR-4"}, "[26]": {"system": "HCC 2998"}, "[27]": {"system": "A498"}, "[28]": {"system": "SNB-19"}, "[29]": {"system": "Malme-3M"}, "[30]": {"system": "RXF 631"}, "[31]": {"system": "TK-10"}, "[32]": {"system": "UACC-257"}, "[33]": {"system": "SN12C"}, "[34]": {"system": "DLD-1"}, "[35]": {"system": "SK-MEL-2"}, "[36]": {"system": "SK-MEL-28"}, "[37]": {"system": "XF498"}, "[38]": {"system": "OVCAR-3"}, "[39]": {"system": "786-0"}, "[40]": {"system": "SF-539"}, "[41]": {"system": "OVCAR-5"}, "[42]": {"system": "SNB-75"}, "[43]": {"system": "SF-268"}, "[44]": {"system": "NCI-H23"}, "[45]": {"system": "RPMI-8226"}, "[46]": {"system": "UO-31"}, "[47]": {"system": "IGROV-1"}, "[48]": {"system": "HL-60"}, "[49]": {"system": "NCI-H460"}, "[50]": {"system": "CAKI-1"}, "[51]": {"system": "A549"}, "[52]": {"system": "EKVX"}, "[53]": {"system": "HOP-62"}, "[54]": {"system": "U-251"}, "[55]": {"system": "CCRF-CEM"}}, "note": "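Following 48 hours of exposure in 96-well plates, responses at five concentrations were used to interpolate endpoints linearly. The concentration for 50% growth inhibition is given as GI50.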 Active and inactive are the calls of the source. Rule as the data show it: active = GI50 up to about 1.1 µM and inactive = higher."}
{"smiles": "CCOC(=O)C1CC(=O)C=C2CCCCC21", "note": "(stereo not given)", "values": [{"measurement": "GI50", "setting": "[1]", "result": "> 100 µM (inactive)"}, {"measurement": "GI50", "setting": "[2]", "result": "> 100 µM (inactive)"}, {"measurement": "GI50", "setting": "[3]", "result": "> 100 µM (inactive)"}, {"measurement": "GI50", "setting": "[4]", "result": "> 100", "unit": "µM"}, {"measurement": "GI50", "setting": "[5]", "result": "> 100 µM (inactive)"}, {"measurement": "GI50", "setting": "[6]", "result": "> 100 µM (inactive)"}, {"measurement": "GI50", "setting": "[7]", "result": "> 100 µM (inactive)"}, {"measurement": "GI50", "setting": "[8]", "result": "> 100 µM (inactive)"}, {"measurement": "GI50", "setting": "[9]", "result": "> 100 µM (inactive)"}, {"measurement": "GI50", "setting": "[10]", "result": "> 100 µM (inactive)"}, {"measurement": "GI50", "setting": "[11]", "result": "> 100 µM (inactive)"}, {"measurement": "GI50", "setting": "[12]", "result": "> 100 µM (inactive)"}, {"measurement": "GI50", "setting": "[13]", "result": "> 100 µM (inactive)"}, {"measurement": "GI50", "setting": "[14]", "result": "> 100 µM (inactive)"}, {"measurement": "GI50", "setting": "[15]", "result": "> 100 µM (inactive)"}, {"measurement": "GI50", "setting": "[16]", "result": "> 100 µM (inactive)"}, {"measurement": "GI50", "setting": "[17]", "result": "> 100 µM (inactive)"}, {"measurement": "GI50", "setting": "[18]", "result": "> 100 µM (inactive)"}, {"measurement": "GI50", "setting": "[19]", "result": "> 100 µM (inactive)"}, {"measurement": "GI50", "setting": "[20]", "result": "> 100 µM (inactive)"}, {"measurement": "GI50", "setting": "[21]", "result": "> 100 µM (inactive)"}, {"measurement": "GI50", "setting": "[22]", "result": "> 100 µM (inactive)"}, {"measurement": "GI50", "setting": "[23]", "result": "> 100 µM (inactive)"}, {"measurement": "GI50", "setting": "[24]", "result": "> 100 µM (inactive)"}, {"measurement": "GI50", "setting": "[25]", "result": "> 100 µM (inactive)"}, {"measurement": "GI50", "setting": "[26]", "result": "> 100 µM (inactive)"}, {"measurement": "GI50", "setting": "[27]", "result": "> 100 µM (inactive)"}, {"measurement": "GI50", "setting": "[28]", "result": "> 100 µM (inactive)"}, {"measurement": "GI50", "setting": "[29]", "result": "> 100 µM (inactive)"}, {"measurement": "GI50", "setting": "[30]", "result": "> 100 µM (inactive)"}, {"measurement": "GI50", "setting": "[31]", "result": "> 100 µM (inactive)"}, {"measurement": "GI50", "setting": "[32]", "result": "> 100 µM (inactive)"}, {"measurement": "GI50", "setting": "[33]", "result": "> 100 µM (inactive)"}, {"measurement": "GI50", "setting": "[34]", "result": "> 100 µM (inactive)"}, {"measurement": "GI50", "setting": "[35]", "result": "> 100 µM (inactive)"}, {"measurement": "GI50", "setting": "[36]", "result": "> 100 µM (inactive)"}, {"measurement": "GI50", "setting": "[37]", "result": "> 100 µM (inactive)"}, {"measurement": "GI50", "setting": "[38]", "result": "> 100 µM (inactive)"}, {"measurement": "GI50", "setting": "[39]", "result": "> 100 µM (inactive)"}, {"measurement": "GI50", "setting": "[40]", "result": "> 100 µM (inactive)"}, {"measurement": "GI50", "setting": "[41]", "result": "> 100 µM (inactive)"}, {"measurement": "GI50", "setting": "[42]", "result": "99.3 µM (inactive)"}, {"measurement": "GI50", "setting": "[43]", "result": "> 100 µM (inactive)"}, {"measurement": "GI50", "setting": "[44]", "result": "> 100 µM (inactive)"}, {"measurement": "GI50", "setting": "[45]", "result": "> 100 µM (inactive)"}, {"measurement": "GI50", "setting": "[46]", "result": "> 100 µM (inactive)"}, {"measurement": "GI50", "setting": "[47]", "result": "> 100 µM (inactive)"}, {"measurement": "GI50", "setting": "[48]", "result": "> 100 µM (inactive)"}, {"measurement": "GI50", "setting": "[49]", "result": "> 100 µM (inactive)"}, {"measurement": "GI50", "setting": "[50]", "result": "> 100 µM (inactive)"}, {"measurement": "GI50", "setting": "[51]", "result": "> 100 µM (inactive)"}, {"measurement": "GI50", "setting": "[52]", "result": "> 100 µM (inactive)"}, {"measurement": "GI50", "setting": "[53]", "result": "> 100 µM (inactive)"}, {"measurement": "GI50", "setting": "[54]", "result": "> 100 µM (inactive)"}, {"measurement": "GI50", "setting": "[55]", "result": "> 100 µM (inactive)"}]}
